Tests used:
HL60 cells = test: Activity on the differentiation of HL60 cells (NBT reduction); format: cell-based; conditions: for AC50: Homo sapiens, HL-60, 96 h, HL60 cells, culturing for 4 days, NBT-positive cells counted; for differentiation-inducing activity on HL60 cells compared with calcitriol: comparison in words
Excerpt: The biological properties analogous to vitamin D may also be measured by means of the capacity of the product to induce the differentiation of promyelocytic leukemia cells HL60. The protocol and also the results obtained with the compounds according to the invention are described in Example 8 of the present patent application.
Calcitrol induces the differentiation of promyelocytic leukaemia cells (HL60) into monocytes/macrophages. This differentiation-inductive effect is a well-characterized marker of cellular vitamin D. One of the most important antimicrobial products of macrophages is hydrogen peroxide, which may be analysed experimentally by the reduction of NBT (Nitroblue Tetrazolium).
The method used is as follows: the HL60 cells are inoculated into 6-well plates and then treated immediately with a test compound. After culturing for 4 days, the cells are incubated with phorbol TPA ester and NBT for a short period and the differentiated cells, i.e., the ones that are positive to NBT, are counted.

human VDR receptor = target: T1, human VDR receptor (Homo sapiens, UniProt P11473); test: VDR agonist activity, HeLa cotransfection with reporter plasmid p240Hase-CAT; format: cell-based; conditions: for AC50: HeLa cells, treatment for 18 hours, CAT activity by ELISA; for VDR agonist activity compared with calcitriol: comparison in words
T1 construct: expressed in transfected cells; host or cells: HeLa
T1 sequence (P11473 1-427): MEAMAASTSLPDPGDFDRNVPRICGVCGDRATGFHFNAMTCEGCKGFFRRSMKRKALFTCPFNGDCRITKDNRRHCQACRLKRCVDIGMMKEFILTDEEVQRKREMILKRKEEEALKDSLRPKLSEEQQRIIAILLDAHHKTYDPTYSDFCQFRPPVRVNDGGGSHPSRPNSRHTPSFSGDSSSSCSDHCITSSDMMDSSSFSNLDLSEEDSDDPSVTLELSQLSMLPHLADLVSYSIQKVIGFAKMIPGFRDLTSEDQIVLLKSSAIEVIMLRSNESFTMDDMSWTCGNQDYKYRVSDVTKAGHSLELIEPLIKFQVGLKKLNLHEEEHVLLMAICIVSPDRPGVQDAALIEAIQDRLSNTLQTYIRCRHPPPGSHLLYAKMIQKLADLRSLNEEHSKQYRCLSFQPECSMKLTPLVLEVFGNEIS
Protocol: By way of example, the VDR agonist activity may be tested on the HeLa cell line by cotransfection of an expression vector of the human VDR receptor and of the reporter plasmid p240Hase-CAT. The agonist activity may also be characterized in this cotransfection system, by determining the dose required to achieve 50% of the maximum activity of the product (AC50).
18 hours after cotransfection, the test compound is added to the medium. After treatment for 18 hours, the CAT activity of the cell lysates is assayed by means of an ELISA test (Enzyme Linked ImmunoSorbent Assay, sold by Roche Molecular Biochemicals).

[1] = test system: normal human keratinocytes; test: Activity on the proliferation of human keratinocytes (BrdU incorporation); conditions: for IC50: Homo sapiens, Keratinocyte, 120 h, read-out: IC50-proliferation of KHNs
Protocol: The biological properties analogous to vitamin D may also be measured by means of the capacity of the product to inhibit the proliferation of normal human keratinocytes (NHK in culture). The product is added to NHKs cultured under conditions promoting the proliferative state. The product is left in contact with the cells for five days. The number of proliferative cells is measured by incorporation of bromodeoxyuridine (BRdU) into the DNA.
The method used is as follows: normal human keratinocytes are inoculated at low density into a 24-well plate. After 4 hours, the test compounds are added to the culture medium. After culturing for 5 days, the proliferation of the keratinocytes is determined by incorporating 5-bromo-2′-deoxyuridine (BrdU) into the DNA. The amount of BrdU incorporated is then measured using the ELISA test (Enzyme Linked ImmunoSorbent Assay, sold by Roche Molecular Biochemicals).

AC50 (human VDR receptor)	SMILES	AC50 (HL60 cells)	IC50 [1]	differentiation-inducing activity on HL60 cells compared with calcitriol (HL60 cells)	VDR agonist activity compared with calcitriol (human VDR receptor)	activity on keratinocyte proliferation relative to calcitriol ([1]; fold greater than calcitriol)	inhibitory activity on keratinocyte proliferation compared with calcitriol ([1]; comparison in words)
	C=C1/C(=C\C=C2/CCC[C@]3(C)[C@@H]([C@H](C)CCCC(C)(C)O)CC[C@@H]23)C[C@@H](O)C[C@@H]1O [Calcitriol, 1,25-dihydroxyvitamin D3, reference compound]	10.7 nM					
2.4 nM	CCCc1cc(C(O)(CC)CC)ccc1-c1cc(OCc2ccc(CO)c(CO)c2)ccc1C [Example 1, {5-[4′-(1-Ethyl-1-hydroxypropyl)-6-methyl-2′-propylbiphenyl-3-yloxy-methyl]-2-hydroxymethylphenyl}methanol]	7.6 nM	16 nM				
4.1 nM	CCc1cc(C(O)(CC)CC)ccc1-c1cc(OCc2ccc(CO)c(CO)c2)ccc1CC [Example 2, {5-[6,2′-Diethyl-4′-(1-ethyl-1-hydroxypropyl)biphenyl-3-yloxymethyl]-2-hydroxymethylphenyl}methanol]	15 nM	53 nM				
2.2 nM	CCCc1cc(C(O)(CC)CC)ccc1-c1cc(OCc2ccc(CO)c(CO)c2)ccc1CC [Example 3, {4-[6-Ethyl-4′-(1-ethyl-1-hydroxypropyl)-2′-propylbiphenyl-3-yloxymethyl]-2-hydroxymethylphenyl}methanol]	11 nM	15 nM				
3.2 nM	CCc1ccc(OCc2ccc(CO)c(CO)c2)cc1-c1ccc(C(O)(CC)CC)cc1C(C)C [Example 4, {4-[6-Ethyl-4′-(1-ethyl-1-hydroxypropyl)-2′-isopropylbiphenyl-3-yloxymethyl]-2-hydroxymethylphenyl}methanol]	27 nM	26 nM				
0.6 nM	CCCc1cc(C(O)(CC)CC)ccc1-c1cc(CCc2ccc(CO)c(CO)c2)ccc1C [Example 5, (4-{2-[4′-(1-Ethyl-1-hydroxypropyl)-6-methyl-2′-propylbiphenyl-3-yl]ethyl}-2-hydroxymethylphenyl)methanol]	1.8 nM	2.4 nM	markedly superior activity	superior activity	more than 5 times	
50 nM	CCC(O)(CC)c1ccc(-c2cc(NCc3ccc(CO)c(CO)c3)ccc2C)c(C)c1 [Example 6, (4-{[4′-(1-Ethyl-1-hydroxypropyl)-6,2′-dimethylbiphenyl-3-ylamino]-methyl}-2-hydroxymethylphenyl)methanol]	147 nM	122 nM	less good activity compared with calcitriol	less good activity compared with calcitriol		less good activity compared with calcitriol
